Measured values from patent US20190018003A1, “TUMOR DISCRIMINATION METHOD, DIAGNOSTIC AGENT FOR TUMOR, AND SENSITIZER FOR TUMOR DIAGNOSIS” (TOTO LTD., priority 2017, published 2019).

Columns and labels:
[1] = test system: WI-38 immortalized normal cells; assay: Co-culture in the same visual field, fluorescence of WI-38 cell region; assay type: cell-based, human; conditions: Example 11, WI-38 cell line, ALA 2 mmol/l, particles 0.001 w/v %
Description: Co-culture pertaining to the present example for having the tumor cells and the immortalized normal cells exist in the same visual field will be described with reference to FIGS. 1A and 1B. For the co-culture, there was used CytoSelect™ 24-Well Cell Co-Culture System (manufactured by COSMO BIO). The T24 cell line was subcultured in an MEM medium (MEM, GlutaMAX™ supplement (Thermo Fisher Scientific), 10 v/v % FBS (Thermo Fisher Scientific)). The cultured cells which reached a logarithmic growth phase 3 days or 4 days later were peeled off with Trypsin/EDTA (Thermo Fisher Scientific) and, after the reaction was terminated in an MEM medium, centrifuged. The cell pellet obtained was suspended in an MEM medium. The cell suspension was subjected to measurement of cell density and inoculated onto a well at a density of 4.4×10^4 cells/0.225 ml/well, the well having an insert 2 of an 8 mm diameter disposed for preparing a cell-free region therein, and cultured for 2 days to form a monolayer in region 3 around the insert 2.
WI-38 cells were subcultured in an MEM medium. […]
Detection of fluorescence was performed in the same manner as in Example 4 by using an inverted fluorescence microscope (ECLIPSE Ti-E, Nikon). Images having a visual field of 3300 μm (width)×2200 μm (length) were obtained, and relative fluorescence intensities were calculated in the same manner as in Example 5.

[2] = test system: UM-UC-3 urinary bladder cancer cells; assay: Fluorescence enhancement in UM-UC-3 cells by separate administration of fluorescent dye (ALA) and particles, fluorescence microscope; assay type: cell-based, human; conditions: Example 5, ALA 2 mmol/l, particles 0.001 w/v %, immediately after observation light irradiation
Description: UM-UC-3 cells (UMUC3, ATCC CRL-1749) were prepared. This cell line was subcultured in an E-MEM medium (ATCC-formulated Eagle's Minimum Essential Medium (ATCC), 10 v/v % FBS (Life Technologies)). The cultured cells which reached a logarithmic growth phase 3 days or 4 days later were peeled off with Trypsin/EDTA (Thermo Fisher Scientific) and, after the reaction was terminated in an E-MEM medium, centrifuged. The cell pellet obtained was suspended in an E-MEM medium. The cell suspension was subjected to measurement of cell density, inoculated onto a 6-well plate at a density of 3.6×10^4 cells/2 ml/well, and cultured for 3 days. […]
Evaluation was performed as follows. The medium of the UM-UC-3 cells on a 6-well plate, obtained in Example 3, was removed by an aspirator, and evaluation thereof was performed under conditions where PBS (−) and HBSS (−) in Example 4 were changed to the E-MEM medium and the MEM medium (no glutamine and no phenol red (Thermo Fisher Scientific), respectively, and the solution was used for detection of fluorescence.
Detection of fluorescence was performed in the same manner as in Example 4 by using an inverted fluorescence microscope (ECLIPSE Ti-E, Nikon). A fluorescence intensity was calculated by subtracting luminance corresponding to dark noise from the image acquired and thereafter obtaining average luminance of all pixels where fluorescence was acquired. […]

NCC(=O)CCC(=O)O [fluorescent dye, 5-aminolevulinic acid]
Relative fluorescence intensity [1]: 1.0 | Relative fluorescence intensity [2]: 1.0
